Experimental data from patent US20100074881A1, “MULTIPLE NEBULIZER SYSTEMS” (PARION SCIENCES, Inc., priority 2008, published 2010).

Experiments:
airways = settings: concurrent use of hypertonic saline and amiloride; cited from earlier work
[1] = Solubility of PS552-02 in NaCl solutions; assay type: physicochemical
Description: (§1) A specific example of an application for the dual-nebulizer technology is illustrated in the following example in which the desired co-delivery of two therapeutic agents that act synergistically is not possible due to the incompatibility of these agents in a single formulation. […] However, due to the poor solubility of PS552-02 in NaCl solutions, these two agents cannot be formulated together. Currently, administration of PS552-02 and hypertonic saline would require two independent nebulizer treatments. However, a dual nebulizer system alleviates this issue by allowing both agents to be simultaneously delivered. Compound PS552-02 is represented by the formula: […]

airway surface = assay: Airway surface hydration with PS552-02 and hypertonic saline; settings: PS552-02 together with hypertonic saline (3-7%)
Description: as §1

SMILES: N=C(N)NC(=O)c1nc(Cl)c(N)nc1N [Amiloride, amiloride]
- effect on water permeability of airways (airways): block the water permeability of airways

SMILES: N=C(NCCCCc1ccc(OCC(O)CO)cc1)NC(=O)c1nc(Cl)c(N)nc1N (stereo not drawn) [PS552-02]
- solubility in NaCl solutions [1]: poor
- airway surface hydration (airway surface): synergistically enhance
